According to BigSolDB 2.1:

N[C@@H](Cc1c[nH]c2ccccc12)C(=O)O
solubility (mole fraction)
Conditions	in acetone	in acetonitrile	in ethanol	in ethyl acetate	in isopropanol	in methanol	in n-butanol	in water
278.15 K	0.0001	1e-05	0.00012	4e-05	0.00011	0.00062	0.0001	0.00098
283.15 K	0.00011	2e-05	0.00013	5e-05	0.00012	0.00066	0.00011	0.00105
288.15 K	0.00013	2e-05	0.00014	7e-05	0.00014	0.00072	0.00012	0.00113
293.15 K	0.00015	3e-05	0.00017	9e-05	0.00015	0.0008	0.00014	0.00124
298.15 K	0.00018	4e-05	0.0002	0.00011	0.00018	0.0009	0.00017	0.00137
303.15 K	0.00022	5e-05	0.00024	0.00014	0.00021	0.00102	0.0002	0.00154
308.15 K	0.00026	7e-05	0.00028	0.00018	0.00024	0.00115	0.00024	0.00174
313.15 K	0.00031	8e-05	0.00033	0.00023	0.00028	0.00131	0.00028	0.00199
318.15 K	0.00037	0.0001	0.00038	0.00028	0.00033	0.00149	0.00034	0.00229
323.15 K	0.00045	0.00012	0.00044	0.00034	0.00037	0.00166	0.0004	0.00261
328.15 K	0.00056	0.00014	0.0005	0.00041	0.00043	0.00189	0.00049	0.00294
333.15 K	0.00069	0.00017	0.00058	0.0005	0.0005	0.00217	0.00059	0.00328
